In the CheMixHub ionic liquid set:

Assay: xn = mol fraction of the nth substance listed

NCCOCCO + O + CCCC[n+]1ccn(C)c1.O=S(=O)([O-])C(F)(F)F
viscosity [mPa·s], 101 kPa
Settings | 293.15 K | 298.15 K | 303.15 K | 308.15 K | 313.15 K | 318.15 K | 323.15 K | 328.15 K | 333.15 K
x1 = 0.182, x2 = 0.8049 | 11.31 | 9.2 | 7.59 | 6.34 | 5.37 | 4.581 | 3.959 | 3.457 | 3.052
x1 = 0.2233, x2 = 0.7322 | 15.97 | 12.84 | 10.48 | 8.66 | 7.252 | 6.139 | 5.248 | 4.534 | 3.956
x1 = 0.4053, x2 = 0.4752 | 28.79 | 22.55 | 17.99 | 14.6 | 12.01 | 10.05 | 8.52 | 7.25 | 6.179

O=[N+]([O-])[O-].O=[N+]([O-])[O-].[Mg+2] + O + CC[NH3+].O=[N+]([O-])[O-]
100 kPa
Settings | electrical conductivity [S/m] | viscosity [mPa·s]
223 K, x1 = 0.2128, x2 = 0.6185 | 0.001 | –
233 K, x1 = 0.2128, x2 = 0.6185 | 0.006 | –
243 K, x1 = 0.1395, x2 = 0.4931 | 0.002 | –
243 K, x1 = 0.2128, x2 = 0.6185 | 0.02 | –
253 K, x1 = 0.1395, x2 = 0.4931 | 0.019 | –
253 K, x1 = 0.2128, x2 = 0.6185 | 0.052 | –
263 K, x1 = 0.1395, x2 = 0.4931 | 0.077 | –
263 K, x1 = 0.2128, x2 = 0.6185 | 0.113 | –
273 K, x1 = 0.1395, x2 = 0.4931 | 0.206 | –
273 K, x1 = 0.2128, x2 = 0.6185 | 0.216 | –
283 K, x1 = 0.1395, x2 = 0.4931 | 0.429 | –
283 K, x1 = 0.2128, x2 = 0.6185 | 0.375 | –
288.15 K, x1 = 0.1395, x2 = 0.4931 | – | 172
288.15 K, x1 = 0.2128, x2 = 0.6185 | – | 334
293 K, x1 = 0.1395, x2 = 0.4931 | 0.76 | –
293 K, x1 = 0.2128, x2 = 0.6185 | 0.602 | –
293.15 K, x1 = 0.1395, x2 = 0.4931 | – | 138.7
293.15 K, x1 = 0.2128, x2 = 0.6185 | – | 253
298.15 K, x1 = 0.1395, x2 = 0.4931 | – | 112.6
298.15 K, x1 = 0.2128, x2 = 0.6185 | – | 193
303 K, x1 = 0.1395, x2 = 0.4931 | 1.2 | –
303 K, x1 = 0.2128, x2 = 0.6185 | 0.91 | –
303.15 K, x1 = 0.1395, x2 = 0.4931 | – | 92
303.15 K, x1 = 0.2128, x2 = 0.6185 | – | 148.9
308.15 K, x1 = 0.1395, x2 = 0.4931 | – | 75.7
308.15 K, x1 = 0.2128, x2 = 0.6185 | – | 115.8
313 K, x1 = 0.1395, x2 = 0.4931 | 1.74 | –
313 K, x1 = 0.2128, x2 = 0.6185 | 1.31 | –
313.15 K, x1 = 0.1395, x2 = 0.4931 | – | 62.7
313.15 K, x1 = 0.2128, x2 = 0.6185 | – | 90.7
323 K, x1 = 0.1395, x2 = 0.4931 | 2.37 | –
323 K, x1 = 0.2128, x2 = 0.6185 | 1.8 | –
333 K, x1 = 0.1395, x2 = 0.4931 | 3.08 | –
333 K, x1 = 0.2128, x2 = 0.6185 | 2.39 | –
343 K, x1 = 0.1395, x2 = 0.4931 | 3.86 | –
343 K, x1 = 0.2128, x2 = 0.6185 | 3.08 | –
353 K, x1 = 0.1395, x2 = 0.4931 | 4.69 | –
353 K, x1 = 0.2128, x2 = 0.6185 | 3.88 | –
363 K, x1 = 0.1395, x2 = 0.4931 | 5.56 | –
363 K, x1 = 0.2128, x2 = 0.6185 | 4.78 | –
373 K, x1 = 0.1395, x2 = 0.4931 | 6.46 | –
373 K, x1 = 0.2128, x2 = 0.6185 | 5.78 | –

CCCC[n+]1ccn(C)c1.O=[N+]([O-])[O-] + O + NCCO
100 kPa
Settings | viscosity [mPa·s]
303 K, x1 = 0.2218, x2 = 0.4128 | 15.07
303 K, x1 = 0.2959, x2 = 0.2542 | 17.98
308 K, x1 = 0.2218, x2 = 0.4128 | 12.54
308 K, x1 = 0.2959, x2 = 0.2542 | 14.93
313 K, x1 = 0.01284, x2 = 0.8603 | 2.342
313 K, x1 = 0.02953, x2 = 0.8245 | 2.9
313 K, x1 = 0.05213, x2 = 0.7761 | 3.701
313 K, x1 = 0.08442, x2 = 0.707 | 4.94
313 K, x1 = 0.1343, x2 = 0.6001 | 6.9
313 K, x1 = 0.2218, x2 = 0.4128 | 10.58
313 K, x1 = 0.2959, x2 = 0.2542 | 12.55
313 K, x1 = 0.4146, x2 = 0 | 17.77
318 K, x1 = 0.2218, x2 = 0.4128 | 9.05
318 K, x1 = 0.2959, x2 = 0.2542 | 10.69
323 K, x1 = 0.2218, x2 = 0.4128 | 7.81
323 K, x1 = 0.2959, x2 = 0.2542 | 9.2

C[NH+](C)C.O=S(=O)([N-]S(=O)(=O)C(F)(F)F)C(F)(F)F + O=C1CCCO1
101 kPa
Settings | electrical conductivity [S/m] | viscosity [mPa·s]
298.15 K, x1 = 0.0005 | 0.043 | –
298.15 K, x1 = 0.0008 | 0.059 | –
298.15 K, x2 = 0.5239 | 1.89 | –
303.15 K, x2 = 0.8088 | – | 3.08
303.15 K, x2 = 0.8803 | – | 2.34
313.15 K, x2 = 0.672 | – | 3.62
313.15 K, x2 = 0.8803 | – | 1.86
333.15 K, x2 = 0.7428 | – | 1.87
343.15 K, x2 = 0.8803 | – | 0.98
